From ChEMBL document CHEMBL3414518, “Development of selective DprE1 inhibitors: Design, synthesis, crystal structure and antitubercular activity of benzothiazolylpyrimidine-5-carboxamides” (Eur J Med Chem, 2015)
In brackets after ≈: the same amount, converted by molar mass.

Columns and labels:
[1] = system: Mycobacterium tuberculosis; assay: Antitubercular activity against Mycobacterium tuberculosis H37Rv ATCC 27294 after 5 days by broth microdilution method; format: functional; conditions: H37Rv ATCC 27294, 120 h
[2] = Cmax in Sprague-Dawley rat at 20 mg/kg, po; format: ADME, organism-based; parameters: dose 20 mg/kg, route oral; conditions: in vivo
[3] = Elimination half life in Sprague-Dawley rat at 10 mg/kg, iv; format: ADME, organism-based; parameters: dose 10 mg/kg, route intravenous; conditions: in vivo, read-out: beta t1/2 (converted)
[4] = Inhibition of Mycobacterium tuberculosis DprE1 using beta-D-ribofuranose as substrate after 7 mins by UV-Visible spectroscopy
[5] = AUC (0 to infinity) in Sprague-Dawley rat at 10 mg/kg, iv; format: ADME, organism-based; parameters: time infinity, dose 10 mg/kg, route intravenous; conditions: plasma
[6] = Tmax in Sprague-Dawley rat at 20 mg/kg, po; format: ADME, organism-based; parameters: dose 20 mg/kg, route oral; conditions: in vivo
[7] = Elimination half life in Sprague-Dawley rat at 20 mg/kg, po; format: ADME, organism-based; parameters: dose 20 mg/kg, route oral; conditions: in vivo, read-out: beta t1/2 (converted)
[8] = Partition coefficient, log P of the compound in PBS at 10 mM at pH 7.4 after 5 hrs by shake flask method; format: physicochemical
[9] = Cmax in Sprague-Dawley rat at 10 mg/kg, iv; format: ADME, organism-based; parameters: dose 10 mg/kg, route intravenous; conditions: in vivo
[10] = Oral bioavailability in Sprague-Dawley rat at 20 mg/kg; format: ADME, organism-based; conditions: in vivo
[11] = AUC (0 to infinity) in Sprague-Dawley rat at 20 mg/kg, po; format: ADME, organism-based; parameters: time infinity, dose 20 mg/kg, route oral; conditions: plasma

Q: Which MIC [1] does the source give for `CC1=C(C(=O)Nc2nc3ccccc3s2)C(c2ccc(O)cc2)NC(=S)N1` (stereo not given) here?
A: Its MIC is 2.4 µM (≈ 0.952 µg/mL).

Q: With `COc1ccc(C2NC(=S)NC(C)=C2C(=O)Nc2nc3ccccc3s2)cc1` (stereo not given) as the compound, how does the MIC [1] read?
A: Its MIC is 0.5 µM (≈ 0.205 µg/mL).

Q: With `CC1=C(C(=O)Nc2nc3ccccc3s2)C(c2ccc(Cl)cc2Cl)NC(=S)N1` (stereo not given) as the compound, how does the MIC [1] read?
A: The MIC was 0.25 µM (≈ 0.112 µg/mL).

Q: Which MIC [1] does the source give for `COC(=O)c1ccc(C2NC(=S)NC(C)=C2C(=O)Nc2nc3ccccc3s2)cc1` (stereo not given) here?
A: Its MIC is 3.1 µM (≈ 1.36 µg/mL).

Q: With `CC1=C(C(=O)Nc2nc3ccccc3s2)C(c2cccc([N+](=O)[O-])c2)NC(=S)N1` (stereo not given) as the compound, how does the MIC [1] read?
A: The MIC was 1.3 µM (≈ 0.553 µg/mL).

Q: With `CC1=C(C(=O)Nc2nc3ccccc3s2)C(c2ccc(Cl)cc2)NC(=S)N1` (stereo not given) as the compound, how does the MIC [1] read?
A: The MIC was 0.32 µM (≈ 0.133 µg/mL).

Q: With `COc1cccc(C2NC(=S)NC(C)=C2C(=O)Nc2nc3ccccc3s2)c1O` (stereo not given) as the compound, how does the MIC [1] read?
A: Its MIC is 1.4 µM (≈ 0.597 µg/mL).

Q: With `COc1cc(C2NC(=S)NC(C)=C2C(=O)Nc2nc3ccccc3s2)cc(OC)c1O` (stereo not given) as the compound, how does the MIC [1] read?
A: The MIC was 1.2 µM (≈ 0.548 µg/mL).

Q: For `COc1ccccc1C1NC(=S)NC(C)=C1C(=O)Nc1nc2ccccc2s1` (stereo not given), which MIC [1] is on record?
A: The MIC was 0.5 µM (≈ 0.205 µg/mL).

Q: Which MIC [1] does the source give for `CC1=C(C(=O)Nc2nc3ccccc3s2)C(c2ccccc2O)NC(=S)N1` (stereo not given) here?
A: Its MIC is 2.4 µM (≈ 0.952 µg/mL).

Q: Which MIC [1] does the source give for `CC1=C(C(=O)Nc2nc3ccccc3s2)C(c2ccccc2[N+](=O)[O-])NC(=S)N1` (stereo not given) here?
A: The MIC was 1.2 µM (≈ 0.511 µg/mL).

Q: With `CC1=C(C(=O)Nc2nc3ccccc3s2)C(c2ccc(Br)cc2)NC(=S)N1` (stereo not given) as the compound, how does the MIC [1] read?
A: Its MIC is 0.4 µM (≈ 0.184 µg/mL).

Q: What does the source list for `CC1=C(C(=O)Nc2nc3ccccc3s2)C(c2ccc(N(C)C)cc2)NC(=S)N1` (stereo not given)?
A: Cmax [2]: 410 ng/mL; MIC [1]: 0.08 µM (≈ 0.0339 µg/mL); half-life [3]: 2.5 h; IC50 [4]: 10.3 µM; AUC(0-inf) [5]: 1480 ng·h/mL; Tmax [6]: 0.5 h; half-life [7]: 1.4 h; logD at 5 h [8]: 2.22; Cmax [9]: 1620 ng/mL; bioavailability [10]: 52.7%; AUC(0-inf) [11]: 780 ng·h/mL

Q: What does the source list for `CC1=C(C(=O)Nc2nc3ccccc3s2)C(c2ccccc2)NC(=S)N1` (stereo not given)?
A: Cmax [2]: 590 ng/mL; MIC [1]: 0.08 µM (≈ 0.0304 µg/mL); half-life [3]: 2.6 h; IC50 [4]: 7.7 µM; AUC(0-inf) [5]: 1500 ng·h/mL; Tmax [6]: 0.5 h; half-life [7]: 5.5 h; logD at 5 h [8]: 2.03; Cmax [9]: 1800 ng/mL; bioavailability [10]: 52.7%; AUC(0-inf) [11]: 790 ng·h/mL

Q: For `CC1=C(C(=O)Nc2nc3ccccc3s2)C(c2ccc(F)cc2)NC(=S)N1` (stereo not given), which Cmax [2] is on record?
A: Its Cmax is 340 ng/mL.

Q: And the MIC [1]?
A: The MIC was 0.09 µM (≈ 0.0359 µg/mL).

Q: What about the half-life [3] of the same compound?
A: The half-life was 2.8 h.

Q: And the IC50 [4]?
A: Its IC50 is 9.2 µM.

Q: What about the AUC(0-inf) [5] of the same compound?
A: The AUC(0-inf) was 1530 ng·h/mL.

Q: What about the Tmax [6] of the same compound?
A: The Tmax was 0.6 h.

Q: And the half-life [7]?
A: Its half-life is 5.8 h.

Q: What about the logD at 5 h [8] of the same compound?
A: The logD at 5 h was 2.18.

Q: What about the Cmax [9] of the same compound?
A: Its Cmax is 1500 ng/mL.

Q: What about the bioavailability [10] of the same compound?
A: Its bioavailability is 51.9%.

Q: What about the AUC(0-inf) [11] of the same compound?
A: Its AUC(0-inf) is 810 ng·h/mL.

Q: Which MIC [1] does the source give for `CC1=C(C(=O)Nc2nc3ccccc3s2)C(c2ccccc2Cl)NC(=S)N1` (stereo not given) here?
A: The MIC was 0.32 µM (≈ 0.133 µg/mL).

Q: Which MIC [1] does the source give for `CC1=C(C(=O)Nc2nc3ccccc3s2)C(c2ccc([N+](=O)[O-])cc2)NC(=S)N1` (stereo not given) here?
A: The MIC was 1.2 µM (≈ 0.511 µg/mL).

Q: What does the source list for `CC1=C(C(=O)Nc2nc3ccccc3s2)C(c2ccc(C(F)(F)F)cc2)NC(=S)N1` (stereo not given)?
A: Cmax [2]: 490 ng/mL; MIC [1]: 0.09 µM (≈ 0.0404 µg/mL); half-life [3]: 2.6 h; IC50 [4]: 11.1 µM; AUC(0-inf) [5]: 1640 ng·h/mL; Tmax [6]: 0.6 h; half-life [7]: 6 h; logD at 5 h [8]: 2.92; Cmax [9]: 1730 ng/mL; bioavailability [10]: 50.6%; AUC(0-inf) [11]: 830 ng·h/mL

Q: Which MIC [1] does the source give for `NNC(=O)c1ccncc1` [ISONIAZID] here?
A: The MIC was 0.2 µM (≈ 0.0274 µg/mL).

Q: Which MIC [1] does the source give for `COc1ccc(C2NC(=S)NC(C)=C2C(=O)Nc2nc3ccccc3s2)cc1O` (stereo not given) here?
A: Its MIC is 1.2 µM (≈ 0.512 µg/mL).
